Among the test systems are SK-MEL-28 melanoma; 786-0 renal; CCRF-CEM leukemia; NCI-H522 lung; SK-MEL-5 melanoma; HOP-62 NSCLC; SK-OV-3 ovarian; HOP-92 NSCLC; COLO 205 colon; CAKI-1 renal.
Assay in all cases: NCI-60 cell line screen, 48 h

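96-well plates; 48 h exposure; 5 concentrations. Endpoints by linear interpolation between flanking doses. Not reached: highest tested concentration assigned. Abbreviation: GI50, concentration required for 50% inhibition of growth. TGI marks complete inhibition of growth.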

In the case of `O=C(CI)NC(=O)NC(=O)NCc1ccccc1`, the GI50 was 2.96 µM with SK-MEL-28 melanoma; 1.98 µM in the assay on 786-0 renal; 0.51 µM in the assay on CCRF-CEM leukemia; 1.62 µM in the assay on NCI-H522 lung; 4.73 µM in the assay on SK-MEL-5 melanoma; 18.5 µM in the assay with HOP-62 NSCLC. Further, the GI50 was 15.4 µM with SK-OV-3 ovarian, 1.71 µM in the assay with HOP-92 NSCLC, 2.13 µM in the assay with COLO 205 colon and 1.69 µM with CAKI-1 renal. Further, the TGI was 11.3 µM in the assay on SK-MEL-28 melanoma; 4.18 µM in the assay with 786-0 renal; 2.14 µM in the assay with CCRF-CEM leukemia; 3.52 µM with NCI-H522 lung; 15.9 µM in the assay with SK-MEL-5 melanoma; 42 µM in the assay with HOP-62 NSCLC. The TGI with SK-OV-3 ovarian turned out to be 29 µM; in the assay on HOP-92 NSCLC, 6.29 µM; in the assay on COLO 205 colon, 4.64 µM; in the assay on CAKI-1 renal, 3.12 µM.
Turning to `Nc1nc(Cl)c2ncn(Cc3ccc(C45CC6CC(CC(C6)C4)C5)c(OCc4cc(F)c(F)cc4F)c3)c2n1`, the GI50 with SK-MEL-28 melanoma is 8.12 µM; in the assay on 786-0 renal, 1.85 µM; with CCRF-CEM leukemia it was 1.66 µM; in the assay with NCI-H522 lung it was 2.8 µM; in the assay with SK-MEL-5 melanoma, 0.392 µM; in the assay on HOP-62 NSCLC it was 3.23 µM. The GI50 in the assay with SK-OV-3 ovarian was 6.02 µM; with HOP-92 NSCLC, 2.02 µM; with COLO 205 colon, 4.22 µM; in the assay with CAKI-1 renal, 2.37 µM. The TGI in the assay with SK-MEL-28 melanoma was found to be 26.3 µM; in the assay with 786-0 renal it was 4.93 µM; in the assay on CCRF-CEM leukemia it was 4.16 µM; in the assay on NCI-H522 lung, 12.3 µM; with SK-MEL-5 melanoma it was 2.24 µM; with HOP-62 NSCLC it was 10.8 µM. Besides, the TGI in the assay with SK-OV-3 ovarian was 42.2 µM; in the assay with HOP-92 NSCLC, 6.03 µM; in the assay on COLO 205 colon, 22 µM; with CAKI-1 renal, 5.48 µM.
For the compound `O=C1C=CC2(O)OCC3C=C4O[C@@H]5OC6(CCCCC6)O[C@@H]5C4[C@@H]2[C@@H]13` (stereo not given in full), the TGI with SK-MEL-28 melanoma is 44.7 µM; with 786-0 renal it was 41.2 µM; with CCRF-CEM leukemia, 45.8 µM; with NCI-H522 lung, 27.9 µM; in the assay with SK-MEL-5 melanoma it was > 100 µM; in the assay on HOP-62 NSCLC, > 100 µM. Also, the TGI was > 100 µM with SK-OV-3 ovarian, 33.4 µM with HOP-92 NSCLC, 30.9 µM with COLO 205 colon and 48.9 µM with CAKI-1 renal.
`CN(C)C1C(=O)C(C(N)=O)=C(O)C2(O)C(=O)C3=C(O)c4c(O)cccc4C(C)(O)C3CC12.[Cl][Sb]([Cl])[Cl]` (stereo not given): the GI50 with SK-MEL-28 melanoma is 2.81 µM; in the assay with 786-0 renal it was 4.14 µM; in the assay with CCRF-CEM leukemia it was 2.39 µM; in the assay with NCI-H522 lung, 1.86 µM; with SK-MEL-5 melanoma, 1.78 µM; with HOP-62 NSCLC, 4.66 µM. Further, the GI50 in the assay on SK-OV-3 ovarian is 3.79 µM; with HOP-92 NSCLC it was 2.56 µM; with COLO 205 colon it was 2.94 µM; in the assay on CAKI-1 renal, 1.83 µM. Besides, the TGI worked out at 8.57 µM with SK-MEL-28 melanoma; 17.6 µM in the assay with 786-0 renal; 11.2 µM in the assay with CCRF-CEM leukemia; 4.1 µM with NCI-H522 lung; 4.36 µM in the assay with SK-MEL-5 melanoma; 15.5 µM in the assay on HOP-62 NSCLC. Also, the TGI with SK-OV-3 ovarian turned out to be 14 µM; with HOP-92 NSCLC, 7.61 µM; in the assay with COLO 205 colon it was 9.17 µM; in the assay with CAKI-1 renal it was 4.22 µM.
Regarding `C/C(=C/CCC(C)[C@@H]1CC[C@]2(C)C3=C(CC[C@@]12C)[C@@]1(C)CCC(=O)C(C)(C)[C@@H]1CC3)C(=O)O` (stereo not given in full), the GI50 in the assay with SK-MEL-28 melanoma is 1.42 µM; in the assay on 786-0 renal, 1.18 µM; with CCRF-CEM leukemia, 0.708 µM; in the assay on NCI-H522 lung, 0.728 µM; with SK-MEL-5 melanoma it was 1.07 µM; in the assay on HOP-62 NSCLC, 1.99 µM. In addition, the GI50 is 1.78 µM in the assay on SK-OV-3 ovarian, 0.783 µM with HOP-92 NSCLC, 1.86 µM in the assay on COLO 205 colon and 0.753 µM with CAKI-1 renal. The TGI in the assay with SK-MEL-28 melanoma was determined as 2.82 µM; with 786-0 renal, 2.57 µM; in the assay with CCRF-CEM leukemia, 2.5 µM; with NCI-H522 lung, 2.21 µM; with SK-MEL-5 melanoma, 2.44 µM; with HOP-62 NSCLC, 3.57 µM. Besides, the TGI in the assay on SK-OV-3 ovarian is 3.18 µM; with HOP-92 NSCLC, 2.09 µM; with COLO 205 colon, 3.6 µM; in the assay with CAKI-1 renal, 2.14 µM.
As to `CC(C)N(C(=O)C12C3C4C1C1C4(C#N)C3C12C(=O)O)C(C)C` (stereo not given), the TGI is > 100 µM in the assay on SK-MEL-28 melanoma; > 100 µM with 786-0 renal; > 82 µM in the assay with CCRF-CEM leukemia; > 100 µM in the assay with NCI-H522 lung; > 100 µM in the assay on SK-MEL-5 melanoma; > 100 µM in the assay with HOP-62 NSCLC. Also, the TGI in the assay on SK-OV-3 ovarian, in the assay with HOP-92 NSCLC, with COLO 205 colon and in the assay with CAKI-1 renal was > 100 µM in each case.
Regarding `CCc1ccc(Oc2c(-c3ccc(OCc4ccc(Cl)cc4)cc3O)nn(C)c2C(F)(F)F)cc1`, the GI50 is 1.26 µM with SK-MEL-28 melanoma; 1.22 µM with 786-0 renal; 0.454 µM in the assay on CCRF-CEM leukemia; 0.303 µM in the assay with NCI-H522 lung; 1.22 µM with SK-MEL-5 melanoma; 1.34 µM with HOP-62 NSCLC. For the same compound, the GI50 was 1.63 µM with SK-OV-3 ovarian, 0.324 µM in the assay on HOP-92 NSCLC, 0.457 µM in the assay with COLO 205 colon and 2.09 µM in the assay on CAKI-1 renal. Further, the TGI was 2.91 µM with SK-MEL-28 melanoma; 2.87 µM with 786-0 renal; 4.82 µM in the assay on CCRF-CEM leukemia; 1.94 µM in the assay on NCI-H522 lung; 2.47 µM in the assay with SK-MEL-5 melanoma; 2.83 µM with HOP-62 NSCLC. The TGI in the assay with SK-OV-3 ovarian came to 4.98 µM; in the assay on HOP-92 NSCLC it was 1.77 µM; in the assay with COLO 205 colon, 1.73 µM; in the assay with CAKI-1 renal it was 7.25 µM.
For the compound `CC(C)(C)O/N=C/c1cc(NC(=S)c2ccccc2)ccc1Cl`, the TGI is 32.5 µM in the assay with SK-MEL-28 melanoma; 32.5 µM in the assay with 786-0 renal; 74.5 µM in the assay with CCRF-CEM leukemia; 28.2 µM with NCI-H522 lung; 41.5 µM with SK-MEL-5 melanoma; 37.1 µM in the assay on HOP-62 NSCLC. In addition, the TGI in the assay with SK-OV-3 ovarian is > 100 µM; with HOP-92 NSCLC, 34.4 µM; in the assay on COLO 205 colon it was 27.8 µM; with CAKI-1 renal it was 72.4 µM.
With `CCCCCCCCCC1CC(=O)OC23CCCC(=O)C12O3` (stereo not given), the TGI with SK-MEL-28 melanoma, with 786-0 renal, in the assay on CCRF-CEM leukemia, in the assay with NCI-H522 lung, with SK-MEL-5 melanoma and with HOP-62 NSCLC was > 100 µM throughout. The TGI with SK-OV-3 ovarian, in the assay on HOP-92 NSCLC, with COLO 205 colon and in the assay on CAKI-1 renal was > 100 µM in each case.

The record behind these values is PubChem BioAssay (NCI).
